Assay results as given in US20120065084A1, “METHODS AND TOOLS FOR PREDICTING THE EFFICIENCY OF ANTHRACYCLINES IN CANCER” (UNIVERSITE LIBRE DE BRUXELLES, priority 2010, published 2012).

Test system: primary breast tumor
Assay: neoadjuvant prospective TOP trial: pathological complete response to anthracyclines (epirubicin) monotherapy
Type: in vivo, human
Description: One hundred and forty-nine patients were included in the prospective TOP trial. Out of these patients, 89 received 4 cycles of anthracyclines every 3 weeks, 59 patients received 6 cycles of anthracyclines administered every 2 weeks (dose-dense scheme) and one was not treated according to the protocol due to ineligibility.
The neoadjuvant prospective “TOP” (Trial of Principle) trial was conducted at different European hospitals and coordinated by the Institut Jules Bordet. This study is registered on the clinical trials site of the US National Cancer Institute website http://clinicaltrials.gov/ct2/show/NCT00162812?term=NCT00162812&rank=1. One hundred and forty-nine patients have been included in this trial. Anthracyclines (Epirubicin) monotherapy (100 mg/m2) was given as neo-adjuvant chemotherapy: every 3 weeks×4 cycles for early BC or every 2 weeks×6 cycles with Neulasta® 6 mg on day 2 for patients with inflammatory or locally advanced breast cancer. At completion of chemotherapy, every patient underwent surgery with axillary node sampling. After surgery, adjuvant docetaxel (100 mg/m2×4 cycles) and loco-regional irradiation were administered using standard criteria. This study was primarily designed for the identification of biomarkers of response to anthracyclines (epirubicin).
All patients underwent pretreatment core biopsies of the primary breast tumor before starting neo-adjuvant chemotherapy using a 14G needle. Two biopsies were embedded in OCT (Sakura), frozen in liquid nitrogen within 5 minutes and transferred to a −80° C. freezer. Two biopsies were fixed in formalin and embedded in paraffin. Both fixed and frozen samples were retrieved and stored at the Institut Jules Bordet in Brussels, where the TOP2A evaluations were carried out. Pathologic response was determined by microscopic examination of the excised tumor and nodes after completion of chemotherapy. Pathological complete response (pCR) was defined by the absence of residual invasive breast carcinoma (macro and microscopic) in the breast and in the axillary nodes. Persistence of in-situ carcinoma without invasive component was considered pCR.

`COc1cccc2c1C(=O)c1c(O)c3c(c(O)c1C2=O)C[C@@](O)(C(=O)CO)C[C@@H]3O[C@H]1C[C@H](N)[C@@H](O)[C@H](C)O1` [anthracyclines, Epirubicin] was tested, and the “pathological complete response (pCR) rate” value (3-weekly scheme (every 3 weeks x 4 cycles)) was 14%, the “proportion of patients who presented a pCR” value (HER2-negative patients (FISH)) was 10% and the “proportion of patients who presented a pCR” value (HER2-positive patients (FISH)) was 23%. For the same molecule, the “pathological complete response (pCR) rate” value (all patients of the TOP trial, neo-adjuvant epirubicin monotherapy 100 mg/m2) was 15%, the “pathological complete response (pCR) rate” value (dose-dense scheme (every 2 weeks x 6 cycles)) was 16% and the “patients who responded to the anthracyclines therapy (pCR)” value (patients whose tumors had no TOP2A amplification (FISH)) was 9%. For the same molecule, the “patients who responded to the anthracyclines therapy (pCR)” value (patients with TOP2A amplified tumors (FISH)) was 55%.
